Experimental data from patent publication US20250388544A1, “HETEROAROMATIC INHIBITORS OF ASTACIN PROTEINASES” (VIVORYON THERAPEUTICS N.V., priority 2019, published 2025).

Legend:
Type in all cases: biochemical
[1] = biological target: T1, hMMP 9 (Homo sapiens, UniProt P14780); assay: Residual enzyme activity of other metalloproteases; conditions: read-out: Residual enzyme activity MMP9; for remaining activity at 10 µM: 10 μM inhibitor; for remaining activity at 200 µM: 200 μM inhibitor
T1 construct: purchased R&D systems
T1 sequence (P14780 107-707 limits assumed): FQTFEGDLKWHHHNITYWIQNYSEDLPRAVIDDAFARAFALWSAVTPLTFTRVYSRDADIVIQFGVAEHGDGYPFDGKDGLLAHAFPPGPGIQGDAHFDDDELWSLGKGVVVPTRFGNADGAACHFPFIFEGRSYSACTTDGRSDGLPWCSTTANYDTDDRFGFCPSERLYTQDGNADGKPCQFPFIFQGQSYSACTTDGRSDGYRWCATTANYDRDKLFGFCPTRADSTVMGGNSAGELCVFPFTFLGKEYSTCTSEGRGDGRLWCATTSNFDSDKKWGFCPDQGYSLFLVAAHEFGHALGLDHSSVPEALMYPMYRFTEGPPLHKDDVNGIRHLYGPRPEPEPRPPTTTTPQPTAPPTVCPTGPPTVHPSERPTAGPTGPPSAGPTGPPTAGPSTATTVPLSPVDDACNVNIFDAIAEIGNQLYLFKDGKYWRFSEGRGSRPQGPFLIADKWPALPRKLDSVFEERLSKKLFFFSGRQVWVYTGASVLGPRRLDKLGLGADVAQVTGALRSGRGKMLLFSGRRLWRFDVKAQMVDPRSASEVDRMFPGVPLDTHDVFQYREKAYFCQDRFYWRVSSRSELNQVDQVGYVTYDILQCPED
Method: (§1) The determination of enzymatic activity was based on the cleavage of internally quenched peptide substrates. A typical assay of 250 μl total volume measured in black 96 well plates consisted of 100 μl buffer, 50 μl enzyme at a final concentration of 5e-8 M to 2e-10 M, 50 μl substrate (0.15 to 80 μM, in buffer, 0.5% DMSO) and 50 μl inhibitor solution (in buffer, 1% DMSO). In case of 125 μl assay volume (black 96 half area well plates) all volumes were cut in half. Enzymatic activity of ADAMs was measured in 384 well plates with 60 μl total assay volume consisting of 20 μl inhibitor, 20 μl buffer, 10 μl enzyme and 10 μl substrate.
MMPs were activated prior to measurement by APMA (p-aminophenylmercuric acetate) treatment according to manufacturer's instructions (R&D systems).

[2] = biological target: T2, hMeprin α (Homo sapiens, UniProt Q16819); assay: Enzymatic assay, quenched peptide substrate cleavage, method B; conditions: geometric mean (geometric SD factor in parentheses); for Ki: Morrison's equation, read-out: Meprin alpha Ki(app); for IC50: read-out: Meprin alpha IC50
T2 sequence (Q16819 66-746): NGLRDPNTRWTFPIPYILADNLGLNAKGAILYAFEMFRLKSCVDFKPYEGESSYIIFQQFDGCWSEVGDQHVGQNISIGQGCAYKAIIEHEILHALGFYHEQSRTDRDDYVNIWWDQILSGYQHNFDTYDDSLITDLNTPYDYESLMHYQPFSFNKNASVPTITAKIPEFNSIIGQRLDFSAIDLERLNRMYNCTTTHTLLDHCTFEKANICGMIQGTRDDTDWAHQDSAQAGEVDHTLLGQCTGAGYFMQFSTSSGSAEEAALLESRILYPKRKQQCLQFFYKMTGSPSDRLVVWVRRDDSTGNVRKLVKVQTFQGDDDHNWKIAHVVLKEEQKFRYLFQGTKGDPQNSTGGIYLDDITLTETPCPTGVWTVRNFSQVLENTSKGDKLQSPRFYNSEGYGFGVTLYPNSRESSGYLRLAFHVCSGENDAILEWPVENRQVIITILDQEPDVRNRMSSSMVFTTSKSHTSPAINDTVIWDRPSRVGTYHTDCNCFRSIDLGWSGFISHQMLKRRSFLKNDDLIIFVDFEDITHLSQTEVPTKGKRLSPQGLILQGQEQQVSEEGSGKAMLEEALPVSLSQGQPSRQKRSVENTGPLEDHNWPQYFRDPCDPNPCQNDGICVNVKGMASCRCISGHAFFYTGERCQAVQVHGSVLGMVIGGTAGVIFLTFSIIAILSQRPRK
How it was run: (§2)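 Cleavage of internally quenched peptides was read at 340/420 nm and 30° C., with enzyme at 5e-8 to 2e-10 M and substrate at 0.15–80 μM. Inhibitor solutions contained 1% DMSO and substrate 0.5% DMSO. Method B gave Ki(app) values via Morrison's equation, with kinetics measured in at least duplicate on separate days.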

[3] = biological target: T3, hMeprin β (Homo sapiens, UniProt Q16820); assay: as above; conditions: geometric mean (geometric SD factor in parentheses); for Ki: Morrison's equation, read-out: Meprin beta Ki(app); for IC50: read-out: Meprin beta IC50
T3 sequence (Q16820 62-701): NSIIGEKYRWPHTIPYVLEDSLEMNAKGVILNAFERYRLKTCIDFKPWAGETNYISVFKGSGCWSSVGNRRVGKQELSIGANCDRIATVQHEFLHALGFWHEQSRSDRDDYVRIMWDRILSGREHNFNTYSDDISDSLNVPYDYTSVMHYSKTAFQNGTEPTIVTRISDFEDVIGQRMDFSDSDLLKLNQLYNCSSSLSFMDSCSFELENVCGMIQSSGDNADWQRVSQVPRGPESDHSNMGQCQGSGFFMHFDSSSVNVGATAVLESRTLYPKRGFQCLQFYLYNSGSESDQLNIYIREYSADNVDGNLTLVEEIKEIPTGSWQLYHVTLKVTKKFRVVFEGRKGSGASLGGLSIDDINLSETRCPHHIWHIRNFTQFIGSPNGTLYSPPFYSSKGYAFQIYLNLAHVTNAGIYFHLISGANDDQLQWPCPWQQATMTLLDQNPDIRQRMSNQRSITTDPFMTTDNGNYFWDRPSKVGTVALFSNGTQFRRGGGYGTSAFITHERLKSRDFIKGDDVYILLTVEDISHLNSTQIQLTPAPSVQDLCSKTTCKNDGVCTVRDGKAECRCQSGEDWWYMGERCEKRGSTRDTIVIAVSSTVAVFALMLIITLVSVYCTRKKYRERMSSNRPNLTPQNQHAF
How it was run: as §2

[4] = biological target: T4, hADAM 10 (Homo sapiens, UniProt O14672); assay: Residual enzyme activity of other metalloproteases; conditions: read-out: Residual enzyme activity ADAM10; for remaining activity at 10 µM: 10 μM inhibitor; for remaining activity at 200 µM: 200 μM inhibitor
T4 construct: purchased R&D systems
T4 sequence (O14672 214-748): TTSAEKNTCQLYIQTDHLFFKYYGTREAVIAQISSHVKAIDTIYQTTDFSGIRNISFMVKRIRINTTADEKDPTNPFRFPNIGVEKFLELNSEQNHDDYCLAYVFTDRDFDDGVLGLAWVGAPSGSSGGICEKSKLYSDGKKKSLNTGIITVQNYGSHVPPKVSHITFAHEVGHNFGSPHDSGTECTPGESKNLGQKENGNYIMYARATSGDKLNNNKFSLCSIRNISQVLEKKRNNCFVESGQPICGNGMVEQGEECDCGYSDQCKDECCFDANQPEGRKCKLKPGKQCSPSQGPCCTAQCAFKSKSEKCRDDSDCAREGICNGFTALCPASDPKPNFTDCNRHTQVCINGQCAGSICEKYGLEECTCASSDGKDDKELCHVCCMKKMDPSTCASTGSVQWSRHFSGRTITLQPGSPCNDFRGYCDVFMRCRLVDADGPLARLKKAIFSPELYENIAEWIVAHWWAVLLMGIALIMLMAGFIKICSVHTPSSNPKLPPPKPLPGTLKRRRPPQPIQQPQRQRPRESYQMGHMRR
Method: as §1

[5] = biological target: T5, hADAM 17 (Homo sapiens, UniProt P78536); assay: Residual enzyme activity of other metalloproteases; conditions: read-out: Residual enzyme activity ADAM17; for remaining activity at 10 µM: 10 μM inhibitor; for remaining activity at 200 µM: 200 μM inhibitor
T5 construct: purchased R&D systems
T5 sequence (P78536 215-824): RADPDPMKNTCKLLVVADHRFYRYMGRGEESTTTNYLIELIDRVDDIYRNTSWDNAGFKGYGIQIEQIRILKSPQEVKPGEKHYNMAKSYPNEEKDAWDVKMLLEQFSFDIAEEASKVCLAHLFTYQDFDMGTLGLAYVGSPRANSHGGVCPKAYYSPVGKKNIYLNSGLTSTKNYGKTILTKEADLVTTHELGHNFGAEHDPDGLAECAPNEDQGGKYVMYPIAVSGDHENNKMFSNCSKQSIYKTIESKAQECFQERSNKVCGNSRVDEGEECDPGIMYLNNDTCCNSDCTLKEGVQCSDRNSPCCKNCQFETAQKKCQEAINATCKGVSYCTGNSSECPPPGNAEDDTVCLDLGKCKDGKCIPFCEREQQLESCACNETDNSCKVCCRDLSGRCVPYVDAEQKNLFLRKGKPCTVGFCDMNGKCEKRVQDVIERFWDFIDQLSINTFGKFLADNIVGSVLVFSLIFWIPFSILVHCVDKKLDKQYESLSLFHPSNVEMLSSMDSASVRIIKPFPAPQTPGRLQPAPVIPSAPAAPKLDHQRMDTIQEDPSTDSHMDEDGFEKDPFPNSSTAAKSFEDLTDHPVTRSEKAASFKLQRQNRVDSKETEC
Method: as §1

## COc1ccc(-c2n[nH]c(-c3ccccc3)c2CC(=O)NO)cc1OC [Example 49, 2-[3-(3,4-Dimethoxyphenyl)-5-phenyl-1H-pyrazol-4-yl]ethanehydroxamic acid]
[1]
  remaining activity at 10 µM: 90%
  remaining activity at 200 µM: 44%
[2]
  Ki: 0.71 nM
  IC50: 0.79 nM
[3]
  Ki: 83 nM
  IC50: 84 nM
[4]
  remaining activity at 10 µM: 87%
  remaining activity at 200 µM: 13%
[5]
  remaining activity at 10 µM: 65%
  remaining activity at 200 µM: 6%

## O=C(Cc1c(-c2ccc3c(c2)OCO3)n[nH]c1-c1ccccc1)NO [Example 50, 2-[3-(1,3-Benzodioxol-5-yl)-5-phenyl-1H-pyrazol-4-yl]ethanehydroxamic acid]
[1]
  remaining activity at 10 µM: 72%
  remaining activity at 200 µM: 16%
[2]
  Ki: 1 nM
  IC50: 1 nM
[3]
  Ki: 109 nM
  IC50: 118 nM
[4]
  remaining activity at 10 µM: 59%
  remaining activity at 200 µM: 5%
[5]
  remaining activity at 10 µM: 51%
  remaining activity at 200 µM: 5%

## O=C(Cc1c(-c2cc(F)c(O)c(Cl)c2)n[nH]c1-c1ccccc1)NO [Example 54, 2-[3-(3-Chloro-5-fluoro-4-hydroxy-phenyl)-5-phenyl-1H-pyrazol-4-yl]ethanehydroxamic acid]
[1]
  remaining activity at 10 µM: 86%
  remaining activity at 200 µM: 39%
[2]
  Ki: 0.14 nM
  IC50: 0.21 nM
[3]
  Ki: 0.42 nM
  IC50: 0.44 nM
[4]
  remaining activity at 10 µM: 104%
  remaining activity at 200 µM: 61%
[5]
  remaining activity at 10 µM: 68%
  remaining activity at 200 µM: 5%

## O=C(Cc1c(-c2cccc(C(=O)O)c2)n[nH]c1-c1ccc(Cl)c(O)c1F)NO [Example 63, 3-[5-(4-Chloro-2-fluoro-3-hydroxy-phenyl)-4-[2-(hydroxyamino)-2-oxo-ethyl]-1H-pyrazol-3-yl]benzoic acid]
[1]
  remaining activity at 10 µM: 94%
  remaining activity at 200 µM: 71%
[2]
  Ki: 5 nM
  IC50: 5 nM
[3]
  Ki: 4 nM
  IC50: 4 nM
[4]
  remaining activity at 10 µM: 90%
  remaining activity at 200 µM: 74%
[5]
  remaining activity at 10 µM: 99%
  remaining activity at 200 µM: 91%
